Legend:
mucosal memory responses = test: Effect of ATRA on immune responses in skin-draining lymph nodes in vivo
Salmonella = conditions: ATRA during parenteral immunization, reference 12; cited from earlier work

CC1=C(/C=C/C(C)=C/C=C/C(C)=C/C(=O)O)C(C)(C)CCC1 [ATRA, all-trans retinoic acid]
mucosal memory responses at mucosal surfaces (mucosal memory responses): not only enhanced in the small intestine, but also at other mucosal surfaces | protection against Salmonella infections (Salmonella): convey protection against Salmonella infections
